Like-named read-outs stand apart in the source and are kept apart here.
Key:
[1] = target: PARP1 GST (Homo sapiens (Human), UniProt P09874); experiment: TR-FRET binding assay, PARP1; settings: Probe 2, 2 hours incubation
Protocol: (§1) TR-FRET assays were used to measure the binding of compounds to TIPARP and PARP1, and to characterize biochemical selectivity. Compound stock solutions (10 mM) were serially diluted in 3-fold increments in dimethyl sulfoxide (DMSO). Diluted compounds were dispensed (30 nL) into white ProxiPlate-384-well plates (PerkinElmer, Waltham, MA, USA) using an ECHO® 550 acoustic Labcyte dispenser (Beckman-Coulter Life Sciences, Indianapolis, IN, USA) to achieve a final starting concentration of 30 μM to 0.5 nM in the assay. This was followed by addition of 5 μL of 2× protein/probe mix (Table 2) made in assay buffer (Tris-HCl 50 mM pH 8.0; 5 mM MgCl2; 5 μM ZnCl2; 1 mM DTT (dithiothreitol); 0.15% BSA (bovine serum albumin) (w/v); and 0.01% TritonX-100 (w/v)) at final concentrations listed in Table 2. Subsequently, 5 μL of 2× antibody (Tb-labeled anti-GST antibody, Thermo Fisher Scientific, Waltham, MA, USA) in HEPES buffered saline was added to each well at a final concentration of 1 nM. The samples were then incubated for 2 hours under ambient conditions. Fluorescence was measured and TR-FR ET ratios were determined on an EnVision multimode plate reader (PerkinElmer) using a 520 nanometer (nm) excitation wavelength and collecting fluorescence emission at 495 nm.

[2] = test system: DLD-1 BRCA2 (−/−) cells; experiment: CellTiter-Glo DLD-1 BRCA2 (−/−) cell assay for PARP1/2 inhibition; type: cell-based; settings: 6 days, read-out: DLD-1 BRCA2 (−/−) CTG EC50
Source text: (§2) The DLD-1 BRCA2 (−/−) CellTiter-Glo® assay measured the synthetic lethality of PARP1/2 inhibitors and was used as a surrogate to allow measurement of activity of both PARP1 and PARP2 in cells. If PARP1 and PARP2 are inhibited and are trapped onto chromatin during DNA replication, there is replication fork stalling and accumulation of double strand breaks. In BR CA wild-type cells, the resulting double strand DNA breaks are repaired via homologous recombination. In cells with mutation of BRCA1 or BRCA2, homologous recombination repair of DNA double strand breaks is defective, and cell death occurs after PARP1/2 inhibitor treatment (Lord C J, Ashworth A. PARP inhibitors: synthetic lethality in the clinic. Science. 2017 Mar. 17; 355(6330):1152-1158). Testing compounds in viability assays with the DLD-1-BR CA 2 (−/−) and DLD-1 parent cell enabled assessment on PARP1/2-dependent (cytotoxicity in the BRCA2 (−/−) cells only) vs. non-selective cytotoxicity in both cell lines.
(§3) Compound stock solutions (10 mM) were serially diluted in 3-fold increments in dimethyl sulfoxide (DMSO). Sample aliquots (120 nL) were dispensed into Corning® 384-well Flat Clear Bottom White Polystyrene TC-treated Microplates (Corning Life Sciences, Corning, NY, USA) using an ECHO® 550 acoustic Labcyte dispenser (Beckman-Coulter Life Sciences, Indianapolis, IN, USA) to achieve concentrations between 30 μM and 0.5 nM in the assay. In the assay, 40 μL of 500 DLD-1 parent cells (HORIZON® Therapeutics, Deerfield, IL, USA) or 40 μL of 1200 DLD-1-BRCA2 (−/−) cells (HORIZON Therapeutics) in complete growth medium containing RPMI 1640 growth medium (ThermoFisher Scientific, Waltham, MA, USA) supplemented with 20 mg/L L-glutamate, 25 mM HEPES (4-(2-hydroxyethyl)-1-piperazineethanesulfonic acid), 10% (v/v) heat inactivated FBS (fetal bovine serum), and 1% (w/v) Penicillin-Streptomycin were added.
(§4) Duplicate cell plates with 40 μL cells/well along with various concentrations of compounds were kept in Nunc™ Square BioAssay Dishes (Thermo Fisher Scientific) at 98% relative humidity in a 5% CO2 incubator at 37° C. for 6 days. On day 7, plates were moved to ambient lab conditions for 10 minutes until the temperature equilibrated. Following equilibration, CellTiter-Glo® Luminescent Cell Viability Assay reagent (Promega™, Madison, WI, USA) was added (15 μL) to each well of the plates. After a 20 minutes incubation, luminescence was detected using a ViewLux™ microplate imager (PerkinElmer, Waltham, MA, USA). Data analysis was performed using GraphPad Prism (Dotmatics, Boston, MA, USA).

[3] = test system: DLD-1 parent cells; experiment: CellTiter-Glo DLD-1 parent cell assay; type: cell-based; settings: 6 days, read-out: DLD-1 CTG EC50
Source text: as §2, §3, §4

[4] = test system: NCI-H1373 cells; experiment: NCI-H1373 CellTiter-Glo cell assay for TIPARP inhibition; type: cell-based, human; settings: 6 days, 100 nM 10-Cl-BBQ in medium, read-out: NCI-H1373 CTG EC50
Protocol: The NCI-H1373 CellTiter-Glo® assay was used to determine cell numbers after TIPARP inhibition-induced cell cycle arrest, and enabled screening of compounds for cellular TIPARP inhibition potency.
Compound stock solutions (10 mM) were serially diluted in 3-fold increments in dimethyl sulfoxide. Sample aliquots (120 nL) were dispensed into Corning® 384-well Flat Clear Bottom White Polystyrene TC-treated Microplates (Corning Life Sciences, Corning, NY, USA) using an ECHO® 550 acoustic Labcyte dispenser (Beckman-Coulter Life Sciences, Indianapolis, IN, USA) to achieve final concentrations between 30 μM and 0.5 nM in the assay. This was followed by the addition of 40 μL of 1000 NCI-H1373 cells (ATCC®, Manassas, VA, USA) in complete growth medium RPMI 1640 growth medium (Thermo Fisher Scientific, Waltham, MA, USA) supplemented with 20 mg/L L-glutamate, 25 mM HEPES (4-(2-hydroxyethyl)-1-piperazineethanesulfonic acid), 10% (v/v) heat inactivated FBS (fetal bovine serum), 1% (w/v) penicillin-streptomycin, and 100 nM 10-Cl-BBQ (10-chloro-7H-benzimidazo[2,1-a]benz[de]isoquinolin-7-one, (Tocris, Minneapolis, MN, USA). Duplicate cell plates with 40 μL cells/well along with various concentrations of compounds were kept in Nunc™ Square BioAssay Dishes (Thermo Fisher Scientific) at 98% relative humidity in a 5% C02 incubator at 37° C. for 6 days. On day 7, plates were moved to ambient lab conditions for 10 minutes until the temperature equilibrated. Following equilibration, CellTiter-Glo® Luminescent Cell Viability Assay reagent (Promega™, Madison, WI, USA) was added (15 μL) to each well of the plates. After a 20 minutes incubation, luminescence was detected using a ViewLux™ microplate imager (PerkinElmer, Waltham, MA, USA). Data analysis was performed using GraphPad Prism (Dotmatics, Boston, MA, USA).

[5] = target: TIPARP GST-(TEV) (Homo sapiens (Human), UniProt Q7Z3E1); experiment: TR-FRET binding assay, TIPARP; settings: for IC50: TR-FRET, Probe 1, 2 hours incubation; for PARP1/TIPARP IC50 Ratio: ratio of PARP1 GST IC50 to TIPARP GST-(TEV) IC50
Chain of TIPARP GST-(TEV) (Q7Z3E1 441-657): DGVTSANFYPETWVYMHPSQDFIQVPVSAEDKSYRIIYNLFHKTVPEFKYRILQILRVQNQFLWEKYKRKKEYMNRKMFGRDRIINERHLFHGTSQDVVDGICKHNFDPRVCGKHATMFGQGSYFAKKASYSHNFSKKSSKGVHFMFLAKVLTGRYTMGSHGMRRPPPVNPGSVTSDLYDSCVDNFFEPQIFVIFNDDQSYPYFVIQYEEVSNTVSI
Source text: as §1, with “The full-length cDNA encoding the human TIPARP (NP_001171647.1, UniProtKB-Q7Z3E1) of 657 amino acids was the template to generate the expression construct. […] The TIPARP fusion protein includes GST, glutathione S-transferase, a 26 kDa protein whose DNA sequence is frequently integrated into expression vectors for production of recombinant proteins. A […], was cloned into vector pFastBacTM 1 (Thermo Fisher Scientific) with an N-terminal GST tag followed by a TEV protease site to produce the TIPARP fusion protein, TIPARP GST-(TEV). TR-FRET” for “TR-FRET”, “nm. […] [table]” for “nm.”

Chain of PARP1 GST (P09874 whole entry): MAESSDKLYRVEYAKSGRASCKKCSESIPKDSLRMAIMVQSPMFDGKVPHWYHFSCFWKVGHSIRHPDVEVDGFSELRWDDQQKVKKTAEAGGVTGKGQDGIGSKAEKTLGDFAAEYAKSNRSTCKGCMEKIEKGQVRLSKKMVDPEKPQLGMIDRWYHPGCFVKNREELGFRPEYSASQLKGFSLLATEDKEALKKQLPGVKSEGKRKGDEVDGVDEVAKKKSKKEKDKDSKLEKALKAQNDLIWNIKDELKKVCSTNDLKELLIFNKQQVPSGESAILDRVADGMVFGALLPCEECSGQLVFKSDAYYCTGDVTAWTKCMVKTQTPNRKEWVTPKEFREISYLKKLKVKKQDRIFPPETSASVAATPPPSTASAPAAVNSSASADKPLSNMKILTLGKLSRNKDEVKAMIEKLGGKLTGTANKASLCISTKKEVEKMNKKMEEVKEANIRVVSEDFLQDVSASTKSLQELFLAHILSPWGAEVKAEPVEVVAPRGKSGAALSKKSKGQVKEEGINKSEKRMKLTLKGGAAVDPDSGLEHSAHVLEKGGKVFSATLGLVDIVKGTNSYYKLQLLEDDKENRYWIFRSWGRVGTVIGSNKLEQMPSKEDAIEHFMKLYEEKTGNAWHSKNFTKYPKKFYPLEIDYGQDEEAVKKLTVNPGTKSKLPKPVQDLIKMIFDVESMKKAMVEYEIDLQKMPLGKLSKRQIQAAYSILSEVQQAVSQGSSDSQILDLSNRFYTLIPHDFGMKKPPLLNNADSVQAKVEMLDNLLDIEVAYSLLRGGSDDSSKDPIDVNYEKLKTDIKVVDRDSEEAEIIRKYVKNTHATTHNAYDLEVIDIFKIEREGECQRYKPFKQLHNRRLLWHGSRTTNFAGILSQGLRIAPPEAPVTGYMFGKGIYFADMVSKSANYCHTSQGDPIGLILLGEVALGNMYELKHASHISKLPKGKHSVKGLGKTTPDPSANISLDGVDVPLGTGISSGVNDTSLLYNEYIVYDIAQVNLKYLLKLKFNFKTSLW

Row | Structure (SMILES) | IC50 [1] [nM] | EC50 ([2]; Homo sapiens, 144 h) [nM] | EC50 ([3]; Homo sapiens, 144 h) [nM] | EC50 ([4]; Homo sapiens, NCI-H1373, 144 h) [nM] | IC50 [5] [nM] | PARP1/TIPARP IC50 Ratio [5] | EC50 [2] [nM] | EC50 [3] [nM] | EC50 [4] [nM]
1 | C[C@@H]1CN(C(=O)[C@H]2C[C@@H](Cc3c[nH]c(=O)c(C(F)(F)F)c3)C2)CCN1c1ncc(C(C)(C)O)cn1 [Example 18, 5-{[(1S,3s)-3-{(3R)-4-[5-(2-hydroxypropan-2-yl)pyrimidin-2-yl]-3-methylpiperazine-1-carbonyl}cyclobutyl]methyl}-3-(trifluoromethyl)pyridin-2(1H)-one] | 871 | 1050 | 12000 | 66.7 | 5.86 | 149 | – | – | –
2 | C[C@@H]1CN(c2ncc(C(C)(C)O)cn2)CCN1C(=O)[C@H]1C[C@@H](Cc2c[nH]c(=O)c(C(F)(F)F)c2)C1 [Example 19, 5-{[(1S,3s)-3-{(2R)-4-[5-(2-hydroxypropan-2-yl)pyrimidin-2-yl]-2-methylpiperazine-1-carbonyl}cyclobutyl]methyl}-3-(trifluoromethyl)pyridin-2(1H)-one] | 6750 | 18300 | > 30000 | 71.2 | 5.79 | 1170 | – | – | –
3 | C[C@H]1CN(C(=O)[C@H]2C[C@@H](Cc3c[nH]c(=O)c(C(F)(F)F)c3)C2)CCN1c1ncc(C(C)(C)O)cn1 [Example 20, 5-{[(1R,3s)-3-{(3S)-4-[5-(2-hydroxypropan-2-yl)pyrimidin-2-yl]-3-methylpiperazine-1-carbonyl}cyclobutyl]methyl}-3-(trifluoromethyl)pyridin-2(1H)-one] | 2130 | 3000 | > 30000 | 81.7 | 6.95 | 306 | – | – | –
4 | C[C@H]1CN(c2ncc(C(C)(C)O)cn2)CCN1C(=O)[C@H]1C[C@@H](Cc2c[nH]c(=O)c(C(F)(F)F)c2)C1 [Example 21, 5-{[(1R,3s)-3-{(2S)-4-[5-(2-hydroxypropan-2-yl)pyrimidin-2-yl]-2-methylpiperazine-1-carbonyl}cyclobutyl]methyl}-3-(trifluoromethyl)pyridin-2(1H)-one] | 331 | 1060 | > 30000 | 160 | 12.9 | 25.7 | – | – | –
5 | C[C@@H]1CN(C(=O)[C@H]2C[C@@H](Cc3c[nH]c(=O)c(C(F)(F)F)c3)C2)C[C@H](C)N1c1ncc(C(C)(C)O)cn1 [Example 22, 5-{[(1s,3s)-3-{(3R,5S)-4-[5-(2-hydroxypropan-2-yl)pyrimidin-2-yl]-3,5-dimethylpiperazine-1-carbonyl}cyclobutyl]methyl}-3-(trifluoromethyl)pyridin-2(1H)-one] | 2730 | 9190 | > 30000 | 27 | 2.8 | 975 | – | – | –
6 | O=c1[nH]cc([C@H]2C[C@@H](C(=O)N3CCN(c4ncc(C(F)(F)F)cn4)CC3)C2)cc1C(F)(F)F [Example 23, 3-(trifluoromethyl)-5-[(1s,3s)-3-{4-[5-(trifluoromethyl)pyrimidin-2-yl]piperazine-1-carbonyl}cyclobutyl]pyridin-2(1H)-one] | 136 | – | – | – | 2.74 | 49.6 | 785 | 13300 | 44.2
7 | C[C@@H]1CN(C(=O)[C@H]2C[C@H](c3c[nH]c(=O)c(C(F)(F)F)c3)C2)C[C@H](C)N1c1ncc(C(F)(F)F)cn1 [Example 24, 5-[(1r,3r)-3-{(3R,5S)-3,5-dimethyl-4-[5-(trifluoromethyl)pyrimidin-2-yl]piperazine-1-carbonyl}cyclobutyl]-3-(trifluoromethyl)pyridin-2(1H)-one] | 3080 | – | – | – | 1870 | 1.65 | 23400 | > 30000 | 6490

Source: patent US20250333394A1, “Tiparp Inhibitor Compounds” (AbbVie Inc., priority 2024, published 2025)
